Experiment [1] relates to HBZY-1. Nature of the experiment: Cytoprotection activity against H2O2-induced cell death in rat HBZY-1 cells assessed as cell viability at 6 uM preincubated with compound for 2 hrs followed by H2O2 addition and measured after 24 hrs by MTT assay (reference value: 62.1%). It counts as functional. The settings on record: read-out: Activity. A general note: Formazan colour is commonly taken as a measure of viable cells.

Experiment [2] concerns HBZY-1. Nature of the experiment: Cytotoxicity against rat HBZY-1 cells assessed as reduction in cell viability after 2 hrs by MTT assay. It counts as cell-based. The settings on record: HBZY-1, 2 h.

In the case of `C[S+]([O-])CCCCN=C=S` (stereo not drawn) [SULFORAPHANE], in experiment [1], the viability at 6 µM is 80%.

For `COc1ccc(CCNC(=O)/C(C#N)=C/c2ccccc2C(F)(F)F)cc1OC`, the IC50 in experiment [2] is above 200 µM. The viability at 6 µM in experiment [1] was 65.6 to 96.4%. Regarding `COc1ccc(CCNC(=O)/C=C/c2ccccc2C(F)(F)F)cc1OC`, the IC50 in experiment [2] was above 200 µM. Also, the viability at 6 µM in experiment [1] fell in the range of 65.6 to 96.4%. In the case of `O=C(/C=C/c1ccccc1C(F)(F)F)Nc1ccc(F)c(Cl)c1`, the 50% inhibitory concentration (IC50) in experiment [2] was above 200 µM. The viability at 6 µM in experiment [1] fell in the range of 65.6 to 96.4%.

Regarding `COc1ccc(NC(=O)/C=C/c2ccccc2C(F)(F)F)cc1OC`, in experiment [2], the IC50 was above 200 µM. Besides, the viability at 6 µM in experiment [1] is 65.6 to 96.4%. Taken in the same sequence, the figures for `COc1ccccc1NC(=O)/C=C/c1ccccc1C(F)(F)F` were above 200 µM and 65.6 to 96.4%. For `COc1ccccc1NC(=O)/C(C#N)=C/c1ccc(OC)c(OC)c1`, in that order: above 200 µM and 78.4%. `COc1ccc(NC(=O)/C=C/c2ccccc2C(F)(F)F)cc1`: the IC50 in experiment [2] is above 200 µM. Besides, in experiment [1], the viability at 6 µM was in the range of 65.6 to 96.4%. Regarding `COc1ccccc1NC(=O)/C(C#N)=C/c1cccc(C)c1`, the IC50 in experiment [2] is above 200 µM. In addition, the viability at 6 µM in experiment [1] is 65.6 to 96.4%. In the case of `COc1ccc(NC(=O)/C(C#N)=C/c2ccccc2C(F)(F)F)cc1`, the IC50 in experiment [2] is above 200 µM. The viability at 6 µM in experiment [1] turned out to be 82.4%.

As to `COc1ccccc1NC(=O)/C(C#N)=C/c1ccc(C)cc1`, in experiment [2], the IC50 was above 200 µM. In addition, the viability at 6 µM in experiment [1] was 65.6 to 96.4%.

As for `COc1cc(NC(=O)/C(C#N)=C/c2ccccc2C(F)(F)F)cc(OC)c1OC`, the IC50 in experiment [2] is above 200 µM. In addition, the viability at 6 µM in experiment [1] was in the range of 65.6 to 96.4%.

In general, IC50 refers to the concentration that inhibits the measured activity by half.
